What is called MIC is the smallest concentration in the dilution series that meets the test's criterion for growth inhibition.

The subject of experiment [1] is Staphylococcus epidermidis strains. Nature of the experiment: % inhibition of bacterial growth by the MIX and its components. Type of experiment: cell-based. Conditions: MIX = both. As to the method: Antibacterial activity of the peptides used in this work was evaluated as described previously. […] The fractional inhibitory concentration (FIC) index for combinations of two peptides was calculated according to the equation: FIC index = […] = A/MICA + B/MICB , where A and B are the MICs of drug A and drug B in the combination, MICA and MICB are the MICs of drug A and drug B alone, and FICA and FICB are the FICs of drug A and drug B. The FIC indices were interpreted as follows: ≤0.5, synergy; 0.51-4.0, no interaction; > 4.0, antagonism. The growth inhibition percentages of Staphylococcus epidermidis and probiotic strains were assessed under the same conditions.

Experiment [2] has the same test system. Nature of the experiment: Antibacterial activity of AMPs (MIC100) and synergism (FIC index). Format: cell-based. The note with it: against Staphylococcus epidermidis strains, single agent. As to the method:
Antibacterial activity of the peptides used in this work was evaluated as described previously. […] The fractional inhibitory concentration (FIC) index for combinations of two peptides was calculated according to the equation: FIC index = […] = A/MICA + B/MICB , where A and B are the MICs of drug A and drug B in the combination, MICA and MICB are the MICs of drug A and drug B alone, and FICA and FICB are the FICs of drug A and drug B. The FIC indices were interpreted as follows: ≤0.5, synergy; 0.51-4.0, no interaction; > 4.0, antagonism.

Another experiment has as its system J774 cells. Nature of the experiment: Nitrite (NO2-) formation in J774 cells, Griess reaction. Format: cell-based, mouse. A general note: Nitrite, measured by Griess reagent, commonly stands in for NO production.

Values joined by “and” are separate entries in the source; they are usually repeats but may differ in a detail not shown here. Identical values can stand only once.

Consider “KKYLLPI VGNLLKSLL-NH2 [TB-KK, analogue of the temporin B]”, for which the “% inhibition of bacterial growth” value in experiment [1] (strain 2/2, RJI-C 9 μg/ml, TB-KK 6 μg/ml) is given as 23 ± 0.5%; in experiment [1] (strain 3/28, RJI-C 9 μg/ml (7.3 μM), TB-KK 6 μg/ml (2.6 μM)), 19 ± 2%; in experiment [1] (strain 5/6, RJI-C 9 μg/ml, TB-KK 6 μg/ml), 10 ± 1%; in experiment [1] (strain 5/8, RJI-C 9 μg/ml, TB-KK 6 μg/ml), 21 ± 2%; in experiment [1] (strain 5/25, RJI-C 9 μg/ml, TB-KK 6 μg/ml), 21 ± 1%; in experiment [1] (strain 9/1, RJI-C 9 μg/ml, TB-KK 6 μg/ml) it was 26 ± 2%. Also, the “% inhibition of bacterial growth” value in experiment [1] (strain 10/28, RJI-C 9 μg/ml, TB-KK 6 μg/ml) worked out at 4 ± 1%; in experiment [1] (strain 12/14, RJI-C 9 μg/ml, TB-KK 6 μg/ml), 20 ± 3%; in experiment [1] (strain 12/26, RJI-C 9 μg/ml, TB-KK 6 μg/ml), 14 ± 2%. In experiment [2] (10^5 CFU/well), the MIC100 turned out to be 7 µg/mL. Also, in experiment [2] (value in brackets), the MIC was 3 µM. For the same substance, the “NO2- production of J774 cells” value in the experiment with J774 cells is 0.82 ± 0.05 μmol/10^6 cells and 1.25 ± 0.2 μmol/10^6 cells and 1.34 ± 0.2 μmol/10^6 cells. Moreover, the “NO2- synthesis in LPS-stimulated J774 cells, in words” value in the experiment on J774 cells is given as “reduced NO2^- synthesis”.

The values above are taken from paper PMC3526545, “New perspectives for natural antimicrobial peptides: application as antinflammatory drugs in a murine model” (BMC Immunology, 2012).
